Key:
[1] = Absorption of sodium cefoxitin with varying concentrations of hexadecyl lysinate in rats, percent bioavailability (Example 9); format: in vivo, rat; conditions: for bioavailability: rat, serum, 2.5 mg, pH 6, rats, hexadecyl lysinate 0 mg/body, 2.5 mg sodium cefoxitin, pH 6
Method: Percent bioavailability was determined versus intravenous administration. Each animal received 2.5 mg sodium cefoxitin with varying amounts of hexadecyl lysinate.

[2] = Absorption of sodium cefoxitin with or without alcohol-lysine esters in rats, percent bioavailability versus intravenous (Example 6); conditions: for bioavailability: rat, serum, 2.5 mg; for effect as absorption promoter at 5 mg/dose (in words): 5 mg/dose level, comparison with hexadecyl lysinate
Method: Blood samples were collected, sodium cefoxitin assayed, and "area-under-the-curve"* calculated. Percent bioavailability was determined versus intravenous administration. Each animal received 2.5 mg sodium cefoxitin ±5.0 mg alcohol-lysine ester. From 3 to 12 animals were used for each compound.

[3] = Absorption of cytarabine with or without hexadecyl lysinate in rats, percent bioavailability versus intravenous (Example 8); conditions: rat, in vivo, 2.5 mg, pH 6, rats, 2.5 mg cytarabine ± 5.0 mg hexadecyl lysinate, 250 μl, pH 6, versus intravenous
Method: The absorption of cytarabine, an antineoplastic and antiviral agent, was tested in rats employing aqueous formulations of cytarabine and hexadecyl lysinate. The compounds were administered in a total volume of 250 μl at pH 6. Both rectal and duodenal sites in the intestine were tested. Blood samples were collected, cytarabine assayed, and "area-under-the-curve"* calculated. Percent bioavailability was determined versus intravenous administration. Each animal received 2.5 mg cytarabine ±5.0 mg hexadecyl lysinate. Three animals were used for each experiment.

## CO[C@@]1(NC(=O)Cc2cccs2)C(=O)N2C(C(=O)O)=C(COC(N)=O)CS[C@@H]21 [Cefoxitin]
[1]; duodenal, read-out: Percent Cefoxitin Bioavailability (mean ± SE), Duodenal
  bioavailability: 1%
[1]; rectal, read-out: Percent Cefoxitin Bioavailability (mean ± SE), Rectal
  bioavailability: 2 ± 1.1%
[2]; intestinal absorption of sodium cefoxitin, with 5 mg/dose promoter (hexadecyl lysinate) or without
  bioavailability: 1%
[2]; pH 7, Percent Cefoxitin Bioavailability (mean ± SE), Duodenal, rats, 2.5 mg sodium cefoxitin ± 5.0 mg alcohol-lysine ester, 250 μl, pH 7, versus intravenous
  bioavailability: 1%
[2]; pH 7, Percent Cefoxitin Bioavailability (mean ± SE), Rectal, rats, 2.5 mg sodium cefoxitin ± 5.0 mg alcohol-lysine ester, 250 μl, pH 7, versus intravenous
  bioavailability: 2 ± 1.1%

## Nc1ccn([C@@H]2O[C@H](CO)[C@@H](O)[C@@H]2O)c(=O)n1 [Cytarabine]
[3]; duodenal, read-out: Percent Cytarabine Bioavailability (mean ± SE), Duodenal
  bioavailability: 5%
[3]; rectal, read-out: Percent Cytarabine Bioavailability (mean ± SE), Rectal
  bioavailability: 6 ± 1.7%

## O=C(O)CN(CCN(CC(=O)O)CC(=O)O)CC(=O)O [EDTA]
[2]
  effect as absorption promoter at 5 mg/dose (in words): ineffective

## CCCCCCCCCCCCCCCCOC(=O)[C@@H](N)CCCCN [Hexadecyl lysinate]
[1]; Example 9
  concentration dependence of absorption promoting effect (in words): act in a concentration dependent manner

## O=C(O)c1ccccc1O [salicylate]
[2]
  effect as absorption promoter at 5 mg/dose (in words): ineffective
